The source of these data is patent US7122666B2, “Heteroaryl-substituted pyrrole derivatives, their preparation and their therapeutic uses” (Sankyo Company, Limited, priority 1999, dated 2006).

Molecules are shown by their SMILES.

Assay [1] deals with IL-1β production in human whole blood. Description: Inhibition of the production of IL-1β in vitro in human whole blood (Test Examples 1 and 1′). Format: cell-based. The following applies: Table 8′, lipopolysaccharide 10 μg/ml, 6 hours at 37° C., plasma IL-1β by ELISA, least squares, read-out: Inhibitory Effect on IL-1β Production (in vitro) IC50. How it is done: (§1) Inhibition of the Production of the Cytokines IL-1β and TNFα in Vitro in Human Whole Blood
(§2) This test was performed according to the method of Hartman, et al. [D. A. Hartman, S. J. Ochalski and R. P. Carlson; The effects of anti-inflammatory and antiallergic drugs on cytokine release after stimulation of human whole blood by lipopolysaccharide and zymosan A: Inflamm. Res., 44, 269 (1995)].
(§3) Peripheral blood samples were collected in the presence of heparin from healthy adult volunteers. 1000 μl of whole blood were added to an Eppendorf tube to which 2 μl of a dimethyl sulfoxide solution of the test compound had been added in advance, after which 10 μl of lipopolysaccharide (E. coli 026: B6 origin, Difco) were added as a stimulant (final concentration of said lipopolysaccharide: 10 μg/ml). This was mixed well and then incubated for 6 hours at 37° C. in the presence of 5% CO2. At the end of the incubation, the mixture was cooled to 4° C. to stop the reaction, followed immediately by centrifuging for 5 minutes at 14,000 rpm to separate and collect the supernatant plasma. The IL-1β and TNFα produced and released into the plasma were measured using a commercially available enzyme immunoassay (ELISA) kit [Cayman (IL-1β) and Genzyme (TNFα)]. The procedure was also repeated in the absence of test compound. The inhibitory effect [IC50 (μM)] on the production of IL-1β and TNFα was determined from the amounts of the cytokines produced in the presence and absence of the test compound.
(§4) Inhibition of the Production of the Cytokines IL-1β and TNFα In Vitro in Human Whole Blood
as §3, with “O26:” for “026:”, “plasma” for “plasma.”, “kits” for “kit”, “determined by the method of least squares” for “determined”
On the technique in general: In an ELISA, binding on a coated surface is turned into a signal by an enzyme label.

In assay [2] the test system is TNFα production. In words: Inhibition of the production of TNFα in vivo (Test Examples 2 and 2′). The following applies: Table 9′; Balb/c mice, oral administration 30 minutes before intravenous lipopolysaccharide, plasma TNFα 1 hour after LPS. The method, then:
This test was performed according to the method of Ochalski, et al. [S. J. Ochalski, D. A. Hartman, M. T. Belfast, T. L. Walter, K. B. Glaser and R. P. Carlson; Inhibition of endotoxin-induced hypothermia and serum TNF-α levels in CD-1 mice by various pharmacological agents: Agents Actions 39, C52–C54 (1993)].
The production of TNFα was induced in mice by the intravenous injection of lipopolysaccharide (E. coli O26: B6 origin, Difco) which was prepared to a concentration of 0.045 mg/ml using physiological saline. The saline preparation of lipopolysaccharide was administered at the rate of 10 ml/l kg of body weight into the caudal vein of Balb/c mice (males, age 5–7 weeks, body weight: approx. 22 g, Japan Charles River) which had been fasted overnight starting on the day before the experiment. One hour after administration, the mice were laparotomized under ether anaesthesia and blood was collected from the abdominal vena cava. Blood collection was performed using a 1 ml volume disposable syringe equipped with a 23G needle which had been moistened with heparin on the inside wall. Following blood collection, the blood was immediately transferred to a 1.5 ml volume Eppendorf tube and centrifuged at 4° C. and 14,000 rpm to separate the plasma. This plasma was then stored at −20° C. until measurement of TNFα. The measurement of the amount of TNFα was performed with a commercially available enzyme immunoassay (ELISA) kit (Mouse TNFα ELISA KIT, Genzyme).
To determine the inhibitory activity of the test compounds, each test compound was suspended in a 0.5% tragacanth solution and then administered orally to the Balb/c mice at the rate of 10 ml/1 kg of body weight 30 minutes before injection of lipopolysaccharide. The level of TNFα production was then determined as described above. In the control group, 0.5% tragacanth solution was administered at the rate of 10 ml/1 kg of body weight to the test mice instead of the solutions of the test compounds. A minimum of 3 dose levels of the test compound was administered to groups of 5 test mice for each test compound. The inhibitory rate relative to the control group was calculated for each dose level. From the inhibitory rates and the dosages, ID50 values were calculated by the least squares method.
The production of TNFα was induced in mice by the intravenous injection of lipopolysaccharide (E. coli O26: B6 origin, Difco) which was prepared to a concentration of 0.045 mg/ml using physiological saline. […]
To determine the inhibitory activity of the test compounds, each test compound was suspended in a 0.5% tragacanth solution and then administered orally to the Balb/c mice at the rate of 10 ml/1 kg of body weight 30 minutes before injection of lipopolysaccharide. The level of TNFα production was then determined as described above. […]

The test system of assay [3] is TNFα production in human whole blood. In words: Inhibition of the production of TNFα in vitro in human whole blood (Test Examples 1 and 1′). Format: cell-based. The following applies: Table 7′, lipopolysaccharide 10 μg/ml, 6 hours at 37° C., plasma TNFα by ELISA, least squares, read-out: Inhibitory Effect on TNFα Production (in vitro) IC50. The method, then:
as §1, §2, §3, §4
as §3, with “O26:” for “026:”, “plasma” for “plasma.”, “kits” for “kit”, “determined by the method of least squares” for “determined”

The test system of assay [4] is adjuvant-induced arthritis. Description: Activity in preventing the development of adjuvant-induced arthritis in vivo (Test Examples 4 and 4′). The following applies: Table 10′; Lewis rat, oral once a day from day 0 to day 20, inhibition of swelling of injected foot on day 21. The method, then:
The test was performed according to the method described by Winder et al. (Arthritis Rheum., 12, 472–482, 1969). Heat-killed dried Mycobacterium butyricum (Difco Laboratories, Lot 679123) was ground on an agate mortar, and was then suspended in dry-sterilised liquid paraffin (first grade, Wako Pure Chemical Industries, Ltd.) to make a 2 ml suspension. The resulting suspension was then sonicated and used as an adjuvant. Arthritis was induced by the intradermal injection of the adjuvant (100 μg of heat killed dried bacterium/0.05 ml of paraffin/paw) into the heel of the right hind paw of a Lewis rat (male, age 8 weeks, Japan Charles River). […] The volumes of the swollen feet (adjuvant-injected right hind foot volume—non-injected left hind foot volume) were calculated. The percent inhibition of swelling of the injected foot of the treated animals as compared to that of the control animals on day 21 was calculated as follows. […] ID50 values were calculated using this curve. […] […]

With `CCC[C@H]1C[C@H]2C=C(c3c[nH]c(-c4ccc(F)cc4)c3-c3ccncc3)CCN2C1` [Example 43′, 2-(4-Fluorophenyl)-4-[(2S,8aS)-2-propyl-1,2,3,5,6,8a-hexahydroindolizin-7-yl]-3-(pyridin-4-yl)-1H-pyrrole], the values for the IC50 in assay [1] and in assay [3] were 8 nM and 6 nM, respectively. Besides, the “Inhibitory Effect on TNFα Production (in vivo) IC50” value (shortened to “Inhibitory Effect”) in assay [2] is 0.40 mg/kg.

For the compound `CC1=CC2C=C(c3c[nH]c(-c4ccc(F)cc4)c3-c3ccncc3)CCN2C1` (stereo in doubt) [Example 31′, 2-(4-Fluorophenyl)-4-[(8aS)-2-methyl-3,5,6,8a-tetrahydroindolizin-7-yl]-3-(pyridin-4-yl)-1H-pyrrole], the IC50 in assay [1] is 4.6 nM; in assay [3] it was 2.4 nM. Besides, in assay [2], the “Inhibitory Effect” value amounted to 0.36 mg/kg.

On to `CC[C@H]1C[C@H]2C=C(c3c[nH]c(-c4ccc(F)cc4)c3-c3ccncc3)CCN2C1` [Example 32′, 4-[(2S,8aS)-2-Ethyl-1,2,3,5,6,8a-hexahydroindolizin-7-yl)-2-(4-fluorophenyl)-3-(pyridin-4-yl)-1H-pyrrole], for which the IC50 stood at 2.7 nM in assay [1] and 4.5 nM in assay [3]. Moreover, the “Inhibitory Effect” value in assay [2] is reported as 0.61 mg/kg.

`Fc1ccc(-c2[nH]cc(C3=C[C@@H]4C[C@H](c5ccccc5)CN4CC3)c2-c2ccncc2)cc1` [Example 12′, 2-(4-Fluorophenyl)-4-[(2R,8aS)-2-phenyl-1,2,3,5,6,8a-hexahydroindolizin-7-yl]-3-(pyridin-4-yl)-1H-pyrrole]: the IC50 in assay [1] is 2.6 nM; in assay [3], 2.5 nM. The “Activity in Preventing the Development of Adjuvant-Induced Arthritis in vivo IC50” value in assay [4] was 2.1 mg/kg.

As a reminder, the IC50 is the concentration that gives 50% inhibition.
